Measurements reported in patent US20240269139A1, “COMPOUNDS FOR TARGETED PROTEIN DEGRADATION OF KINASES” (DANA-FARBER CANCER INSTITUTE, INC., priority 2020, published 2024).
Values joined by “and” are separate entries in the source; they are usually repeats but may differ in a detail not shown here. Equal entries are not always repeated. Where two headings read alike, the source gives them in different places.

How the values were obtained:
Type in all cases: cell-based
[1] = target: T1, protein kinases (human kinome) (Homo sapiens, UniProt P33981); settings: for logFC TTK: Accession P33981
T1 sequence (P33981 1-857): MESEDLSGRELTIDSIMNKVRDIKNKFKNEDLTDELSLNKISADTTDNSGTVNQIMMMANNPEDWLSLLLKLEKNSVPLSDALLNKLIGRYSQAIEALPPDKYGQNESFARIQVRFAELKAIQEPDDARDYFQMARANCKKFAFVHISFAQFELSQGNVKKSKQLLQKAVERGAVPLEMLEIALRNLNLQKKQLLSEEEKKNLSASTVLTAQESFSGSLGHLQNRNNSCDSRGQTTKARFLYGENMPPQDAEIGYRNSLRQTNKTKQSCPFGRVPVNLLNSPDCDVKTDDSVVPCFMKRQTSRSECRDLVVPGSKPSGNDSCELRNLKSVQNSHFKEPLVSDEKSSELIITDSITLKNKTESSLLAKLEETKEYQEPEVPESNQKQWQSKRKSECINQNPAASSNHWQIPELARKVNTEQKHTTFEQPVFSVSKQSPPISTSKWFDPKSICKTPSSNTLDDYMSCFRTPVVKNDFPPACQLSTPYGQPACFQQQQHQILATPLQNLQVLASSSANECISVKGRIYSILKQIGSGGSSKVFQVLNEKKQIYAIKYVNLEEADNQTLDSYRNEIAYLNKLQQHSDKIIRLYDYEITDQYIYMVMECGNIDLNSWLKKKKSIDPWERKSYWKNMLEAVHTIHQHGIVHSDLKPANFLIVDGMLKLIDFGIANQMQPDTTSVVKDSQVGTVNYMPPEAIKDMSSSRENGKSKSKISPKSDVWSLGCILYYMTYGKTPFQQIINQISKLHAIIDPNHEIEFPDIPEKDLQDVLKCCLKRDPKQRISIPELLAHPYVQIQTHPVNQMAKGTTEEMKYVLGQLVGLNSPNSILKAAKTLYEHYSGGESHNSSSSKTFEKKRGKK

[2] = target: protein kinases (human kinome) (Homo sapiens, UniProt Q14289); settings: for logFC: PTK2B (Q14289-1) protein abundance, degrader vs DMSO, down
protein kinases (human kinome) (Homo sapiens, UniProt Q14289), sequence (Q14289 whole entry): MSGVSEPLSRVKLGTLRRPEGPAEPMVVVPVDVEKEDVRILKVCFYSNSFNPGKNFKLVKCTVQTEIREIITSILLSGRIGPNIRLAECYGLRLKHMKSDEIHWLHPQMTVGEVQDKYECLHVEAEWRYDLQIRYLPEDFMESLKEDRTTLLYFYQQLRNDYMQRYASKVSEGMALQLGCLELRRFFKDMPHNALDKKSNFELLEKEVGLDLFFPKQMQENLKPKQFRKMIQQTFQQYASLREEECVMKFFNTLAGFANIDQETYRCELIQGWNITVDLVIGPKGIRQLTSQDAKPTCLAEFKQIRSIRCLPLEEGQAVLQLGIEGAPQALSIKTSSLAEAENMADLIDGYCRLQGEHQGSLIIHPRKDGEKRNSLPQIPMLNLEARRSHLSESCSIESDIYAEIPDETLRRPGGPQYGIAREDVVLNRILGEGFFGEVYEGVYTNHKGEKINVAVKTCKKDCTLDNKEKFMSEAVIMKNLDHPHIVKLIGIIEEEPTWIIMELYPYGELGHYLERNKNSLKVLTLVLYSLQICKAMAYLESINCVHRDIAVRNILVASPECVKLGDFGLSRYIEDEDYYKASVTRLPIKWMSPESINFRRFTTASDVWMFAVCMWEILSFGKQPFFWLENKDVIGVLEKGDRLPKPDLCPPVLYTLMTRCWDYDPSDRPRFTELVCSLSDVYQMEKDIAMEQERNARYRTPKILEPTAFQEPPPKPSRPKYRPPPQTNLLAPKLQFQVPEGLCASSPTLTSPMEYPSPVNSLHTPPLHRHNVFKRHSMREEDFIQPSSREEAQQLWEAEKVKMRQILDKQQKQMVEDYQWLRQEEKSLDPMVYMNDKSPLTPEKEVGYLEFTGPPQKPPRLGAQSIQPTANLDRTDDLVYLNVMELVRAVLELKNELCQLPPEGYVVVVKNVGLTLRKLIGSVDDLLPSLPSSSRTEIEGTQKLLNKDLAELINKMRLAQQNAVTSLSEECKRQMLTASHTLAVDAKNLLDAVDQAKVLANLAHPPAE

[3] = target: protein kinases (human kinome) (Homo sapiens, UniProt Q9HBH9); settings: for logFC MKNK2 (Q9HBH9): Experiment wp152; for logFC: MKNK2 (Q9HBH9-1)
protein kinases (human kinome) (Homo sapiens, UniProt Q9HBH9), sequence (Q9HBH9 whole entry): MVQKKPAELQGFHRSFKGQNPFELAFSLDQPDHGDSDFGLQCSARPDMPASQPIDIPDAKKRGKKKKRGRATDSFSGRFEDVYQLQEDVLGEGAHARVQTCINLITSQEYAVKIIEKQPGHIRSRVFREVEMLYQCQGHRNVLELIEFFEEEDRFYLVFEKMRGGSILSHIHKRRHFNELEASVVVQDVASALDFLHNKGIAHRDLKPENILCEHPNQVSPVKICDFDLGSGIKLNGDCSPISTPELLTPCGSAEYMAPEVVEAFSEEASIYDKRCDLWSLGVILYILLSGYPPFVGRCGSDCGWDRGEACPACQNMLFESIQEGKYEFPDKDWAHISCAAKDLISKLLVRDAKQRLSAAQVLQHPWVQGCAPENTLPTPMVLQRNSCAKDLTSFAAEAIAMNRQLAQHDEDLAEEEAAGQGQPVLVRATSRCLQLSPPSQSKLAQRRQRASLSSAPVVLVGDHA

[4] = target: protein kinases (human kinome) (Homo sapiens, UniProt P50613); settings: for logFC: CDK7 (P50613) protein abundance, degrader vs DMSO, down; for logFC CDK7: CDK7 P50613
protein kinases (human kinome) (Homo sapiens, UniProt P50613), sequence (P50613 whole entry): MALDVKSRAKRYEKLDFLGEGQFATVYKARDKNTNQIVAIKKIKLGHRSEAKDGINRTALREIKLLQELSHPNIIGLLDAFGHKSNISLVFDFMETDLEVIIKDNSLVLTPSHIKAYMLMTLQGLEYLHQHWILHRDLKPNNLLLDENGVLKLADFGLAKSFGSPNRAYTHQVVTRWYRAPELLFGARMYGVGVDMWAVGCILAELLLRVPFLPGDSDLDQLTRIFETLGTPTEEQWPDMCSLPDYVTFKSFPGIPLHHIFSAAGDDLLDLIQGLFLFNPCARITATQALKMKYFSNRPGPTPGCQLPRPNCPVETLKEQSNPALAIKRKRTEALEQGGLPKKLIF

[5] = target: protein kinases (human kinome) (Homo sapiens, UniProt Q9NYV4)
protein kinases (human kinome) (Homo sapiens, UniProt Q9NYV4), sequence (Q9NYV4 whole entry): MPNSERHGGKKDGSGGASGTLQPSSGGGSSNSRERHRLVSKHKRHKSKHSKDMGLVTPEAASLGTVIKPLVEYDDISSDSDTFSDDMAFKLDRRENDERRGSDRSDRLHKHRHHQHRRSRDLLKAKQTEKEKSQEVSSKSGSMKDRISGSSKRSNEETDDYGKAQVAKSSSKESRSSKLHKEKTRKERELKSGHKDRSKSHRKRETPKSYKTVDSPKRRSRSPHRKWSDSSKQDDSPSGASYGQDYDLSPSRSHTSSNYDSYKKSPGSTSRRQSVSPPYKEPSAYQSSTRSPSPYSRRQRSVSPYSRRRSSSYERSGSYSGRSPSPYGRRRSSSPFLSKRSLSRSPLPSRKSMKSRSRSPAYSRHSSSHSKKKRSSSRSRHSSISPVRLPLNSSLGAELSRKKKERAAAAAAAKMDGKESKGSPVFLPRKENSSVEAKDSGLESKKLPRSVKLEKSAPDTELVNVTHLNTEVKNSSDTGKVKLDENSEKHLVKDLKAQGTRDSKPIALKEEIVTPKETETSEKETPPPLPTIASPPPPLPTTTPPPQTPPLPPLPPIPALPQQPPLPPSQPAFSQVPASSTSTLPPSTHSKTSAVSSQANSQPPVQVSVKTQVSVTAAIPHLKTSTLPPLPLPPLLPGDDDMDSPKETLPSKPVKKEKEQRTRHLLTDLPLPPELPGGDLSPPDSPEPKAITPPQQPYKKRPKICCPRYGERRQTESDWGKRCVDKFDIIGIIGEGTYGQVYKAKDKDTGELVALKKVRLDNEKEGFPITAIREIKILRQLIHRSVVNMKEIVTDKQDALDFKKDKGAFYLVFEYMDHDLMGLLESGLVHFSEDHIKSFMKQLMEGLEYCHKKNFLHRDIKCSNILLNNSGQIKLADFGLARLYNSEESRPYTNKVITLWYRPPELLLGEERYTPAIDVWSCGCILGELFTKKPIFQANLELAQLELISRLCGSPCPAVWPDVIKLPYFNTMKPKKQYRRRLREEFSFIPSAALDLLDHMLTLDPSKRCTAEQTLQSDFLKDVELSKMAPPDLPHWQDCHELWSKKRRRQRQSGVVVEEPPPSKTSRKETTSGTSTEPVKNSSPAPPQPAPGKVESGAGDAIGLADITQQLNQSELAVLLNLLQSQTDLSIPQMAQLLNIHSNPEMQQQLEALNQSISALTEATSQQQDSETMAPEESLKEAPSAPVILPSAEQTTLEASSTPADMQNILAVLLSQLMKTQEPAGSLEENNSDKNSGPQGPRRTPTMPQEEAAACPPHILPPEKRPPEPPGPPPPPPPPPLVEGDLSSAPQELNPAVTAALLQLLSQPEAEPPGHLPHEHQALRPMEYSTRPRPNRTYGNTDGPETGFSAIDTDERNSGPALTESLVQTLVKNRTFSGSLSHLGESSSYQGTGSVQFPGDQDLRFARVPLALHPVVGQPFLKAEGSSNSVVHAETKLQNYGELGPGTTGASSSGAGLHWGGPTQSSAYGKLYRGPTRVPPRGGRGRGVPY

[6] = target: T2, protein kinases (human kinome) (Homo sapiens, UniProt O94768); settings: for logFC STK17B (O94768): direction down; for logFC: STK17B (O94768)
T2 sequence (O94768 1-372): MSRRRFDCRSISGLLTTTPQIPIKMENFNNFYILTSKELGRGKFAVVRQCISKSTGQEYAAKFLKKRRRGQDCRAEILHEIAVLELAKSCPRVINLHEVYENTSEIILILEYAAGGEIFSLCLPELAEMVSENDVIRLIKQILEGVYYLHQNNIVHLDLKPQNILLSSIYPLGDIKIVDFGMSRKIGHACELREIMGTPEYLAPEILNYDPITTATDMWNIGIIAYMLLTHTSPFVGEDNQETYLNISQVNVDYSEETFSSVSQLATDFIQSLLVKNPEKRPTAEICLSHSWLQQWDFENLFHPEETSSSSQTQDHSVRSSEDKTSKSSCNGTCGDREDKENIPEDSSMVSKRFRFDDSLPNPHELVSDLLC

[7] = target: T3, protein kinases (human kinome) (Homo sapiens, UniProt Q9UEE5); settings: STK17A Q9UEE5
T3 sequence (Q9UEE5 1-414): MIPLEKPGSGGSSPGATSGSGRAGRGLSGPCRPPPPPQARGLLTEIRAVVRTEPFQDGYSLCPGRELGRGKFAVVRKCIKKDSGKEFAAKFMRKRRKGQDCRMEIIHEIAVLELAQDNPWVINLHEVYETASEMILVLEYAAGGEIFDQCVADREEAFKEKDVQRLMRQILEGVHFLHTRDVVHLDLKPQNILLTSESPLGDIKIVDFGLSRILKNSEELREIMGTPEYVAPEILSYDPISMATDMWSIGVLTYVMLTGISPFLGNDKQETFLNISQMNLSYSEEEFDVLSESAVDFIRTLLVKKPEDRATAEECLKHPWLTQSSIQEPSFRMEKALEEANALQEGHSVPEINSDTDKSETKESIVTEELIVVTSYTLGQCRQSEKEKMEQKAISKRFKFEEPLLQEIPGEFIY

[8] = accession Q14289-1, experiment wp045, direction of change down
[9] = Experiment wp045, direction down
[10] = Experiment wp117, direction down

Cc1ccc(NC(=O)c2cccc(C(F)(F)F)c2)cc1N1Cc2cnc(Nc3ccc(N4CCN(Cc5cn(CCCCCOc6cccc7c6C(=O)N(C6CCC(=O)NC6=O)C7=O)nn5)CC4)nc3)nc2N(C)C1=O (stereo not shown) [DB0646, N-(3-(7-((6-(4-((1-(5-((2-(2,6-Dioxopiperidin-3-yl)-1,3-dioxoisoindolin-4-yl)oxy)pentyl)-1H-1,2,3-triazol-4-yl)methyl)piperazin-1-v)pyridin-3-yl)amino)-1-methyl-2-oxo-1,4-dihydropyrimido[4,5-d]pyrimidin-3(2H)-yl)-4-methylphenyl)-3-(trifluoromethyl)benzamide]
logFC TTK ([1]; experiment wp045): −0.5757 | logFC TTK ([1]; experiment wp107): −0.372 | logFC TTK ([1]; experiment wp117): −0.4267 | logFC TTK ([1]; experiment wp152): −0.5131 | logFC TTK ([1]; experiment wp160, 4 hr): −0.513 | logFC TTK ([1]; experiment wp160, 8 hr): −0.7057 | logFC TTK (P33981) ([1]; experiment wp045): −0.5757 | logFC TTK (P33981) ([1]; experiment wp107): −0.372 | logFC TTK (P33981) ([1]; experiment wp117): −0.4267 | logFC TTK (P33981) ([1]; experiment wp152): −0.5131 | logFC TTK (P33981) ([1]; experiment wp160, 4 hr): −0.513 | logFC TTK (P33981) ([1]; experiment wp160, 8 hr): −0.7057 | logFC PTK2B (Q14289) ([2]; Experiment wp152, direction of change down): −2.998 | logFC ([2]; 1 hr): −0.3955 | logFC ([2]; 2 hr): −1.235 | logFC ([2]; 4 hr): −2.341 | logFC ([2]; 8 hr): −2.599 | logFC PTK2B [2, 8]: −2.774 | logFC PTK2B ([2]; accession Q14289-1, experiment wp114, direction of change down): −1.358 | logFC PTK2B ([2]; accession Q14289-1, experiment wp160, 1 hr, direction of change down): −0.3955 | logFC PTK2B ([2]; accession Q14289-1, experiment wp160, 2 hr, direction of change down): −1.235 | logFC PTK2B ([2]; accession Q14289-1, experiment wp160, 4 hr, direction of change down): −2.341 | logFC PTK2B ([2]; accession Q14289-1, experiment wp160, 8 hr, direction of change down): −2.599 | logFC PTK2B ([2]; accession Q14289, experiment wp152, direction of change down): −2.998 | logFC MKNK2 (Q9HBH9-1) [3, 9]: −0.4463 | logFC MKNK2 (Q9HBH9-1) [3, 10]: −0.3794 | logFC MKNK2 (Q9HBH9) ([3]; direction down): −0.4447 | logFC MKNK2 (Q9HBH9) ([3]; direction of change down): −0.4447 | logFC MKNK2 (Q9HBH9-1) ([3]; Experiment wp160, 4 hr, direction down): −0.5226 | logFC MKNK2 (Q9HBH9-1) ([3]; Experiment wp160, 8 hr, direction down): −0.6422 | logFC ([3]; experiment wp045): −0.4463 | logFC ([3]; experiment wp117): −0.3794 | logFC ([3]; experiment wp160, 4 hr): −0.5226 | logFC ([3]; experiment wp160, 8 hr): −0.6422

Cc1cc(Nc2ncc(Br)c(Nc3cccc(F)c3C(N)=O)n2)ccc1S(=O)(=O)NCCOCCOCCOCCOCCNc1cccc2c1C(=O)N(C1CCC(=O)NC1=O)C2=O (stereo not shown) [TMX.02.174]
logFC TTK ([1]; experiment wp146): −0.7225 | logFC TTK (P33981) ([1]; experiment wp146): −0.7225 | logFC [2]: −1.512 | logFC PTK2B ([2]; accession Q14289-1, experiment wp146, direction of change down): −1.512 | logFC [4]: −0.584 | logFC CDK7 ([4]; experiment wp146): −0.584 | logFC CDK12 ([5]; Accession Q9NYV4-1, experiment wp146): −0.8562 | logFC CDK12 ([5]; CDK12 (Q9NYV4-1), experiment wp146): −0.8562

Cc1ncsc1-c1ccc([C@H](C)NC(=O)[C@@H]2C[C@@H](O)CN2C(=O)[C@@H](NC(=O)CCCCCN2CCN(c3ccc(Nc4ncc5scc(-c6cccc(NS(C)(=O)=O)c6)c5n4)cc3)CC2)C(C)(C)C)cc1 [RSS0680, (2S,4R)-1-((S)-3,3-Dimethyl-2-(6-(4-(4-((7-(3-(methylsulfonamido)phenyl)thieno[3,2-d]pyrimidin-2-yl)amino)phenyl)piperazin-1-yl)hexanamido)butanoyl)-4-hydroxy-N—((S)-1-(4-(4-methylthiazol-5yl)phenyl)ethyl)pyrrolidine-2-carboxamide]
logFC STK17B (O94768) ([6]; Experiment wp080): −1.375 | logFC STK17B (O94768) ([6]; Experiment wp117): −1.373 | logFC ([6]; experiment wp080): −1.375 | logFC ([6]; experiment wp117): −1.373 | logFC [4]: −1.017 and −1.219 | logFC CDK7 ([4]; experiment wp080): −1.017 | logFC CDK7 ([4]; experiment wp117): −1.219 | logFC MKNK2 (Q9HBH9-1) ([3]; Experiment wp080, direction down): −0.4987 | logFC MKNK2 (Q9HBH9-1) [3, 10]: −0.5075 | logFC ([3]; experiment wp080): −0.4987 | logFC ([3]; experiment wp117): −0.5075 | logFC ([7]; experiment wp080): −1.118 | logFC STK17A ([7]; experiment wp080): −1.118 | logFC ([7]; experiment wp117): −1.379 | logFC STK17A ([7]; experiment wp117): −1.379

CCc1cnn2c(N(Cc3ccc(N)nc3)C(=O)CCOCCOCCOCCNC(=O)CNc3cccc4c3C(=O)N(C3CCC(=O)NC3=O)C4=O)cc(N3CCCC[C@H]3CCO)nc12 (stereo partly shown) [MFH.5.115.2]
logFC TTK ([1]; experiment wp076): −0.3249 | logFC TTK (P33981) ([1]; experiment wp076): −0.3249 | logFC ([7]; experiment wp076): −0.6277 | logFC STK17A ([7]; experiment wp076): −0.6277

C=CCn1c(=O)c2cnc(Nc3ccc(N4CCN(CCCNc5cccc6c5C(=O)N(C5CCC(=O)NC5=O)C6=O)CC4)cc3)nc2n1-c1cccc(C(C)(C)O)n1 (stereo not shown) [ZNL.02.096]
logFC MKNK2 (Q9HBH9-1) ([3]; Experiment wp118, direction down): −0.4751 | logFC ([3]; experiment wp118): −0.4751

Cc1ccc(NC(=O)c2cccc(C(F)(F)F)c2)cc1N1Cc2cnc(Nc3ccc(N4CCN(CCCCCCOc5cccc6c5C(=O)N(C5CCC(=O)NC5=O)C6=O)CC4)nc3)nc2N(C)C1=O (stereo not shown) [DB0663]
logFC [2]: −1.961 | logFC PTK2B [2, 8]: −1.961 | logFC MKNK2 (Q9HBH9-1) [3, 9]: −0.4798 | logFC ([3]; experiment wp045): −0.4798

CC(C)S(=O)(=O)c1ccccc1Nc1nc(Nc2ccc(N3CCN(CCOCCNC(=O)CNc4ccc5c(c4)C(=O)N(C4CCC(=O)NC4=O)C5=O)CC3)cc2)ncc1Cl (stereo not shown) [SK.3.93]
logFC [2]: −3.269 | logFC PTK2B ([2]; accession Q14289-1, experiment wp016, direction of change down): −3.269 | logFC [4]: −0.8057 | logFC CDK7 ([4]; experiment wp016): −0.8057 | logFC CDK12 ([5]; Accession Q9NYV4-1, experiment wp016): −0.9555 | logFC CDK12 ([5]; CDK12 (Q9NYV4-1), experiment wp016): −0.9555

O=C1CCC(N2C(=O)c3cccc(NCCCCCCCCN4CCC(NC(=O)c5[nH]ncc5NC(=O)c5c(Cl)cccc5Cl)CC4)c3C2=O)C(=O)N1 (stereo not shown) [MFH.5.126.1]
logFC TTK ([1]; experiment wp076): −0.4412 | logFC TTK (P33981) ([1]; experiment wp076): −0.4412 | logFC STK17B (O94768) ([6]; Experiment wp076): −0.5821 | logFC ([6]; experiment wp076): −0.5821 | logFC ([7]; experiment wp076): −0.8984 | logFC STK17A ([7]; experiment wp076): −0.8984
